Measurements published in patent publication US9879303B2, “Chromogenic glucuronidase substrates and uses” (Glycosynth Limited, priority 2013, dated 2018).
Counter-ions that a name gives are not always drawn.

Columns and labels:
Type in all cases: cell-based
E. cloacae = assay: screen of strains on agar plates (CPS ID 3 or Columbia agar); parameters: key: Red, Green, Black or Purple mean strong colour; Red, Green, Black or Purple mean strong colour; Red, Green, Black or Purple mean strong colour; Red, Green, Black or Purple mean strong colour; +/− means less colour than strong; Tr means a trace of colour, less than +/−; — means no colour
[1] = tested on: Enterococcus faecium NCTC 7171; assay: multi-point inoculation onto Columbia agar plates; details: substrate 300 mg/L, FAC 500 mg/L, 18 h at 37° C. in air
Procedure: (§1) The specificity of action of both DHN-β-D-glucuronide (2) and of catechol-β-D-glucuronide (1), as well as their 6′-methyl esters (4 and 6), was first established using multi-point inoculation of 20 different microbial strains onto Columbia agar plates. The strains chosen represented species commonly encountered in diagnostic microbiology. The substrates were incorporated into the agar at a concentration of 300 mg/L with an iron salt, ferric ammonium citrate, (hereinafter known as FAC) at 500 mg/L. The plates were incubated for 18 h at 37° C. in air.

[2] = tested on: Streptococcus pyogenes NCTC 8306; assay: multi-point inoculation onto Columbia agar plates; details: substrate 300 mg/L, FAC 500 mg/L, 18 h at 37° C. in air
Procedure: as §1

[3] = tested on: Staphylococcus aureus NCTC 6571; assay: multi-point inoculation onto Columbia agar plates; details: substrate 300 mg/L, FAC 500 mg/L, 18 h at 37° C. in air
Procedure: as §1

[4] = tested on: Enterobacter cloacae NCTC 11936; assay: multi-point inoculation onto Columbia agar plates; details: substrate 300 mg/L, FAC 500 mg/L, 18 h at 37° C. in air
Procedure: as §1

[5] = tested on: Escherichia coli NCTC 10418; assay: multi-point inoculation onto Columbia agar plates; details: substrate 300 mg/L, FAC 500 mg/L, 18 h at 37° C. in air
Procedure: as §1

[6] = tested on: Acinetobacter baumanaii NCTC 19606; assay: multi-point inoculation onto Columbia agar plates; details: substrate 300 mg/L, FAC 500 mg/L, 18 h at 37° C. in air
Procedure: as §1

[7] = tested on: Candida glabrata NCPF 3943; assay: multi-point inoculation onto Columbia agar plates; details: substrate 300 mg/L, FAC 500 mg/L, 18 h at 37° C. in air
Procedure: as §1

[8] = tested on: Pseudomonas aeruginosa NCTC 10662; assay: multi-point inoculation onto Columbia agar plates; details: substrate 300 mg/L, FAC 500 mg/L, 18 h at 37° C. in air
Procedure: as §1

[9] = E. cloacae 260329R, 37° C. 18 hours
[10] = E. cloacae NCTC 11936, 37° C. 18 hours

Measured: colour

O=C(O)[C@H]1O[C@@H](Oc2c[nH]c3ccc(Br)c(Cl)c23)[C@H](O)[C@@H](O)[C@@H]1O [X-β-D-glucuronide CHA salt, 5-bromo-4-chloro-3-indolyl β-D-glucuronide]
—: E. cloacae; [9] | E. cloacae; [10]

O=C(O)C1OC(Oc2cc3ccccc3cc2O)C(O)C(O)C1O [Compound 2b, DHN-β-D-Glucuronide CHA Salt]
−: [1] | [2] | [3] | [4] | [6] | [7] | [8]
++: [5]

O=C(O)C1OC(Oc2ccccc2O)C(O)C(O)C1O [Compound 1, Catechol β-D-Glucuronide CHA Salt]
−: [1] | [2] | [3] | [4] | [6] | [7] | [8]
++: [5]

O=C(O)[C@H]1O[C@@H](Oc2c[nH]c3cc(Cl)ccc23)[C@H](O)[C@@H](O)[C@@H]1O [Rose-β-D-glucuronide CHA salt, 6-chloro-3-indolyl β-D-glucuronide]
—: E. cloacae; [9] | E. cloacae; [10]
